Assay [1] deals with Methicillin Resistant Staphylococcus aureus strain USA 200. In words: Minimum inhibitory concentration (MIC), CLSI broth micro-dilution, S. aureus. The note with it: Staphylococcus aureus, MRSA / USA200, MRSA USA 200, cation adjusted Mueller Hinton Broth + 0.002% Tween-80, 35° C., 22 hours. It counts as cell-based. The method, then:
In vitro antimicrobial activity of each compound was determined by measuring minimal inhibitor concentrations (MICs) using the broth micro-dilution technique as approved by the Clinical and Laboratory Standards Institute (CLSI) (Methods for Dilution Antimicrobial Susceptibility Tests for Bacteria that Grow Aerobically; Approved Standard-Eighth Edition. CLSI document M07-A8. Wayne, PA: Clinical and Laboratroy Standards; 2009). Antibacterial activity was measure against two strains of bacteria: a Methicillin Resistant Staphylococcus aureus strain USA 200, (S. aureus) and Escherichia coli ATCC 25922 (E. coli), a clinically relevant Gram-negative strain. Cells were inoculated onto plates of Trypyticase Soy Agar or Luria Agar respectively and grown at 35° C. for 20 hours. Inocula suspensions were prepared by scraping cells into 1 mL of testing media (cation adjusted Mueller Hinton Broth supplemented with 0.002% v/v Tween-80) and diluting to a final OD600nm of 0.01.
Test compounds were prepared in DMSO at a concentration of 10 mg/mL. In protocol 1, the compound stocks were diluted into testing media at a concentration of 64 µg/ml and serial 2-fold dilutions were made in the same media, in 96-well U bottom microtiter dishes, for a total of 10 compound concentrations. In protocol 2, the compound stocks were diluted into testing media at a concentration of 4 µg/mL and serial 2-fold dilutions were made in the same media, in 96-well U bottom microtiter dishes, for a total of 10 compound concentrations. In protocol 3, compound stocks were diluted into testing media at a concentration of 0.5 μg/mL, with serial 2-fold dilutions conducted as described above. In protocol 4, compound stocks were diluted into testing media at a concentration of […], with serial 2-fold dilutions conducted as described above. Inocula suspensions were added to the 2-fold serial dilutions of test compounds to a final density of GD OD600nm of 0.0005 and incubated at 35° C. for 22 hours.

The test system of assay [2] is Escherichia coli ATCC 25922. As to the kind of experiment: Minimum inhibitory concentration (MIC), CLSI broth micro-dilution, E. coli. In kind it is cell-based. To be noted: Escherichia coli, ATCC25922, 22 h. In short, it runs like this: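 Colonies grown 20 h at 35° C on Trypticase Soy agar (MRSA) or Luria agar (E. coli) were suspended in cation-adjusted Mueller Hinton broth with 0.002% Tween-80. Suspensions were added at OD600 0.0005 to 10-point twofold compound dilutions, then incubated 22 h at 35° C.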
Background: Dilution methods test growth across graded concentrations, often in twofold steps.

Where [3] appears, read: Table 6, cation adjusted Mueller Hinton Broth + 0.002% Tween-80, 35° C.

As usually defined, the MIC is the least concentration at which growth counts as inhibited.

For `Cc1nc(-c2ccc(C(C)(C)C)cc2)ncc1C(=O)N[C@@H](CCN)C(=O)N(C)[C@@H]1C(=O)N[C@@H](CO)C(=O)N[C@H](C(=O)NCC#N)Cc2ccc(OCCN)c(c2)-c2cc1ccc2OCCN` (racemic) [Compound 477, rac-(8S,11S,14S)-3,18-bis(2-aminoethoxy)-N-(cyanomethyl)-11-(hydroxymethyl)-14-[methyl-[rac-(2S)-4-amino-2-[[2-(4-tert-butylphenyl)-4-methyl-pyrimidine-5-carbonyl]amino]butanoyl]amino]-10,13-dioxo-9,12-diazatricyclo[13.3.1.12,6]icosa-1(18),2(20),3,5,15(19),16-hexaene-8-carboxamide], the MIC was determined as 0.26 µM in assay [1] (Table 6) and 3.2 µM in assay [2] (setting [3]).
For the molecule `CCC1(Oc2ccc(-c3nc(C)c(C(=O)N[C@@H](CCN)C(=O)N(C)[C@@H]4C(=O)N[C@@H](C)C(=O)N[C@H](C(=O)O)Cc5ccc(OCCN)c(c5)-c5cc4ccc5OCCN)c(C)n3)cc2)CC1` (racemic) [Compound 639, rac-(8S,11S,14S)-3,18-bis(2-aminoethoxy)-11-methyl-14-[methyl-[rac-(2S)-4-amino-2-[[2-[4-(1-ethylcyclopropoxy)phenyl]-4,6-dimethyl-pyrimidine-5-carbonyl]amino]butanoyl]amino]-10,13-dioxo-9,12-diazatricyclo [13.3.1.12,6]icosa-1(18),2(20),3,5,15(19), 16-hexaene-8-carboxylic acid], the MIC in assay [1] (Table 8) is 0.75 µM; in assay [2] (Table 8, cation adjusted Mueller Hinton Broth + 0.002% Tween-80, 35° C.), 0.38 µM.
In the case of `CCCCCCc1ncc(-c2ccc(C(=O)N[C@@H](CCN)C(=O)N(C)[C@@H]3C(=O)N[C@@H](C)C(=O)N[C@H](C(=O)NCC#N)Cc4ccc(OCCN)c(c4)-c4cc3ccc4OCCN)c(C(F)F)c2)cn1` (racemic) [Compound 388, rac-(8S,11S,14S)-3,18-bis(2-aminoethoxy)-N-(cyanomethyl)-11-methyl-14-[methyl-[rac-(2S)-4-amino-2-[[2-(difluoromethyl)-4-(2-hexylpyrimidin-5-yl)benzoyl]amino]butanoyl]amino]-10,13-dioxo-9,12-diazatricyclo[13.3.1.12,6]icosa-1(18),2(20),3,5,15(19),16-hexaene-8-carboxamide], the figures for the MIC in assay [1] (Table 6) and in assay [2] (setting [3]) were 0.031 µM and 1 µM, respectively.
On to `CCCCCCCCc1ccc(C(=O)N[C@@H](CCC(=O)NCCO)C(=O)N(C)[C@@H]2C(=O)N[C@@H](C)C(=O)N[C@H](C(=O)NCC#N)Cc3ccc(OCCN)c(c3)-c3cc2ccc3OCCN)c(C)c1` (racemic) [Compound 446, rac-(2S)-N′-(2-hydroxyethyl)-N-methyl-2-[(2-methyl-4-octyl-benzoyl)amino]-N-[rac-(7S,10S,13S)-3,18-bis(2-aminoethoxy)-13-(cyanomethylcarbamoyl)-10-methyl-8,11-dioxo-9,12-diazatricyclo[13.3.1.12,6]icosa-1(19),2,4,6(20),15,17-hexaen-7-yl]pentanediamide], for which the MIC in assay [1] (Table 6) is 0.032 µM; in assay [2] (setting [3]) it was 4.1 µM.
The matching figures for `CC(C)=C(C)c1ccc(-c2nc(C)c(C(=O)N[C@@H](CCN)C(=O)N(C)[C@@H]3C(=O)N[C@@H](C)C(=O)N[C@H](C(=O)NCC#N)Cc4ccc(OCCN)c(c4)-c4cc3ccc4OCCN)c(C)n2)cc1` (racemic) [Compound 272, rac-(8S,11S,14S)-3,18-bis(2-aminoethoxy)-N-(cyanomethyl)-11-methyl-14-[methyl-[rac-(2S)-4-amino-2-[[2-[4-(1,2-dimethylprop-1-enyl)phenyl]-4,6-dimethyl-pyrimidine-5-carbonyl]amino]butanoyl]amino]-10,13-dioxo-9,12-diazatricyclo[13.3.1.12,6]icosa-1(18),2(20),3,5,15(19),16-hexaene-8-carboxamide]: 0.012 µM and 0.065 µM.
On to `CCCCCc1ccc(-c2nc(C)c(C(=O)N[C@@H](CCN)C(=O)N(C)[C@@H]3C(=O)N[C@@H](C)C(=O)N[C@H](C(=O)NCC#N)Cc4ccc(OCCN)c(c4)-c4cc3ccc4OCCN)o2)cc1` (racemic) [Compound 381, 4-methyl-2-(4-pentylphenyl)-N-[rac-(1S)-3-amino-1-[methyl-[rac-(7S,10S,13S)-3,18-bis(2-aminoethoxy)-13-(cyanomethylcarbamoyl)-10-methyl-8,11-dioxo-9,12-diazatricyclo[13.3.1.12,6]icosa-1(19),2,4,6(20),15,17-hexaen-7-yl]carbamoyl]propyl]oxazole-5-carboxamide], for which the MIC came to 0.067 µM in assay [1] (Table 6) and 4.3 µM in assay [2] (setting [3]).
In the case of `CCCCc1ccc(Oc2nc(C)c(C(=O)N[C@@H](CCN)C(=O)N(C)[C@@H]3C(=O)N[C@@H](C)C(=O)N[C@H](C(=O)NCC#N)Cc4ccc(OCCN)c(c4)-c4cc3ccc4OCCN)c(C)n2)cc1` (racemic) [Compound 354, rac-(8S,11S,14S)-3,18-bis(2-aminoethoxy)-N-(cyanomethyl)-11-methyl-14-[methyl-[rac-(2S)-4-amino-2-[[2-(4-butylphenoxy)-4,6-dimethyl-pyrimidine-5-carbonyl]amino]butanoyl]amino]-10,13-dioxo-9,12-diazatricyclo[13.3.1.12,6]icosa-1(18),2(20),3,5,15(19),16-hexaene-8-carboxamide], the minimum inhibitory concentration (MIC) in assay [1] (Table 6) amounted to 0.016 µM; in assay [2] (setting [3]) it was 1.5 µM.
In the same order, the values of `Cc1nc(-c2ccc(C(C)(C)C)cc2)ncc1C(=O)N[C@@H](CCN)C(=O)N(C)[C@@H]1C(=O)N[C@@H](C)C(=O)N[C@H](C(=O)NCC#N)Cc2ccc(OC[C@H](C)N)c(c2)-c2cc1ccc2OC[C@H](C)N` (racemic) [Compound 438, rac-(8S,11S,14S)-N-(cyanomethyl)-11-methyl-14-[methyl-[rac-(2S)-4-amino-2-[[2-(4-tert-butylphenyl)-4-methyl-pyrimidine-5-carbonyl]amino]butanoyl]amino]-10,13-dioxo-3,18-bis[rac-(2S)-2-aminopropoxy]-9,12-diazatricyclo[13.3.1.12,6]icosa-1(18),2(20),3,5,15(19),16-hexaene-8-carboxamide] are 0.012 µM and 0.16 µM.
`Cc1nc(-c2ccc(OC3C[C@@H]4CC[C@H]3C4)cc2)nc(C)c1C(=O)N[C@@H](CCN)C(=O)N(C)[C@@H]1C(=O)N[C@@H](C)C(=O)N[C@H](C(=O)NCC#N)Cc2ccc(OCCN)c(c2)-c2cc1ccc2OCCN` (mixture of isomers) [Compound 350, rac-(8S,11S,14S)-3,18-bis(2-aminoethoxy)-N-(cyanomethyl)-11-methyl-14-[methyl-[rac-(2S)-4-amino-2-[[4,6-dimethyl-2-[4-[rac-(1S,4R)-norboman-2-yl]oxyphenyl]pyrimidine-5-carbonyl]amino]butanoyl]amino]-10,13-dioxo-9,12-diazatricyclo[13.3.1.12,6]icosa-1(18),2(20),3,5,15(19),16-hexaene-8-carboxamide]: the MIC in assay [1] (Table 6) was 0.016 µM; in assay [2] (setting [3]), 0.094 µM.
In the same order, the values of `Cc1nc(-c2ccc(C(C)(C)C)cc2)nc(O)c1C(=O)N[C@@H](CCN)C(=O)N(C)[C@@H]1C(=O)N[C@@H](C)C(=O)N[C@H](C(=O)NCC#N)Cc2ccc(OCCN)c(c2)-c2cc1ccc2OCCN` (racemic) [Compound 423, rac-(8S,11S,14S)-3,18-bis(2-aminoethoxy)-N-(cyanomethyl)-11-methyl-14-[methyl-[rac-(2S)-4-amino-2-[[2-(4-tert-butylphenyl)-4-hydroxy-6-methyl-pyrimidine-5-carbonyl]amino]butanoyl]amino]-10,13-dioxo-9,12-diazatricyclo[13.3.1.12,6]icosa-1(18),2(20),3,5,15(19),16-hexaene-8-carboxamide] are 0.13 µM and 2 µM.

Values taken from patent US20260274892A1, “MACROCYCLIC BROAD SPECTRUM ANTIBIOTICS” (RQx Pharmaceuticals, Inc., priority 2017, published 2026).
